# Source: patent US20170334899A1, “AMINO-SUBSTITUTED ISOTHIAZOLES” (Bayer Pharma Aktiengesellschaft, priority 2014, published 2017)
# Test system: human cervical tumor cell line HeLa (ATCC CCL-2)
# Test: SAC-Formation - Paclitaxel-Induced Assay
# Format: cell-based
# Conditions: HeLa cells, paclitaxel 0.05 μM, 24 h, test range 0.005 μM-20 μM; read-out: IC50 [mol/l] SAC-Formation - Paclitaxel-Induced Assay
# Summary of the method: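 Read-out is high-content imaging of anti-phospho-H3 Ser10 (mitosis) and Hoechst 33342 (DNA, cell number), with decreased mitotic fraction marking checkpoint breakthrough. Compounds (0.005–20 μM) and 0.05 μM paclitaxel co-added to overnight-plated HeLa for 24 h at 37° C; four-parameter Hill fit.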
row,IC50,Compound
1,27 nM,"Cc1nsc(Nc2cnc(C(F)(F)F)cn2)c1C(=O)Nc1ccc(OCC2CCN(CC(F)(F)F)CC2(F)F)nc1 (centres unmarked) [Example 392, N-(6-{[3,3-difluoro-1-(2,2,2-trifluoroethyl)piperidin-4-yl]methoxy}pyridin-3-yl)-3-methyl-5-{[5-(trifluoromethyl)pyrazin-2-yl]amino}-1,2-thiazole-4-carboxamide]"
2,27 nM,"Cc1nsc(Nc2cnc(C(F)(F)F)cn2)c1C(=O)Nc1ccc(F)c(OC[C@@H]2CCCN(CCC(F)(F)F)C2)c1 [Example 395, N-(4-fluoro-3-{[(3R)-1-(3,3,3-trifluoropropyl)piperidin-3-yl]methoxy}phenyl)-3-methyl-5-{[5-(trifluoromethyl)pyrazin-2-yl]amino}-1,2-thiazole-4-carboxamide]"

# Same assay, conditions: Homo sapiens, HeLa, 24 h, HeLa cells, paclitaxel 0.05 μM, test range 0.005 μM-20 μM, read-out: IC50 [mol/l] SAC-Formation - Paclitaxel-Induced Assay
row,Compound,IC50
1,"Cc1nsc(Nc2cnc(C(F)(F)F)cn2)c1C(=O)Nc1ccc(N2CCN(CCC(F)(F)F)CC2)cn1 [Example 374, 3-methyl-5-{[5-(trifluoromethyl)pyrazin-2-yl]amino}-N-{5-[4-(3,3,3-trifluoropropyl)piperazin-1-yl]pyridin-2-yl}-1,2-thiazole-4-carboxamide]",210 nM
2,"Cc1nsc(Nc2cnc(C(F)(F)F)cn2)c1C(=O)Nc1ccc(OC[C@@H]2CCCN(CC(F)F)C2)nc1 [Example 375, N-(6-{[(3R)-1-(2,2-difluoroethyl)piperidin-3-yl]methoxy}pyridin-3-yl)-3-methyl-5-{[5-(trifluoromethyl)pyrazin-2-yl]amino}-1,2-thiazole-4-carboxamide]",200 nM
3,"Cc1nsc(Nc2cnc(C(F)(F)F)cn2)c1C(=O)Nc1ccc(O[C@@H]2CCN(CC(F)F)C2)nc1 [Example 379, N-(6-{[(3R)-1-(2,2-difluoroethyl)pyrrolidin-3-yl]oxy}pyridin-3-yl)-3-methyl-5-{[5-(trifluoromethyl)pyrazin-2-yl]amino}-1,2-thiazole-4-carboxamide]",96 nM
4,"Cc1nsc(Nc2cnc(C(F)(F)F)cn2)c1C(=O)Nc1ccc(O[C@H]2CCN(CC(F)(F)F)C2)nc1 [Example 383, 3-methyl-N-(6-{[(3S)-1-(2,2,2-trifluoroethyl)pyrrolidin-3-yl]oxy}pyridin-3-yl)-5-{[5-(trifluoromethyl)pyrazin-2-yl]amino}-1,2-thiazole-4-carboxamide]",27 nM
5,"Cc1nsc(Nc2cnc(C(F)(F)F)cn2)c1C(=O)Nc1ccc(O[C@H]2CCN(CCC(F)(F)F)C2)nc1 [Example 384, 3-methyl-5-{[5-(trifluoromethyl)pyrazin-2-yl]amino}-N-(6-{[(3S)-1-(3,3,3-trifluoropropyl)pyrrolidin-3-yl]oxy}pyridin-3-yl)-1,2-thiazole-4-carboxamide]",32 nM
6,"Cc1nsc(Nc2cnc(C(F)(F)F)cn2)c1C(=O)Nc1ccc(O[C@@H]2CCCN(CC(F)(F)F)C2)nc1 [Example 386, 3-methyl-N-(6-{[(3R)-1-(2,2,2-trifluoroethyl)piperidin-3-yl]oxy}pyridin-3-yl)-5-{[5-(trifluoromethyl)pyrazin-2-yl]amino}-1,2-thiazole-4-carboxamide]",57 nM
7,"Cc1nsc(Nc2cnc(C(F)(F)F)cn2)c1C(=O)Nc1ccc(O[C@H]2CCCN(CC(F)F)C2)nc1 [Example 388, N-(6-{[(3S)-1-(2,2-difluoroethyl)piperidin-3-yl]oxy}pyridin-3-yl)-3-methyl-5-{[5-(trifluoromethyl)pyrazin-2-yl]amino}-1,2-thiazole-4-carboxamide]",80 nM
8,"Cc1nsc(Nc2cnc(C(F)(F)F)cn2)c1C(=O)Nc1ccc(OCC2CCN(CC(F)(F)F)CC2(F)F)nc1 (centres unmarked) [Example 392, N-(6-{[3,3-difluoro-1-(2,2,2-trifluoroethyl)piperidin-4-yl]methoxy}pyridin-3-yl)-3-methyl-5-{[5-(trifluoromethyl)pyrazin-2-yl]amino}-1,2-thiazole-4-carboxamide]",30 nM
9,"CCN1CCC(COc2ccc(NC(=O)c3c(C)nsc3Nc3cnc(C(F)(F)F)cn3)cn2)C(F)(F)C1 (centres unmarked) [Example 393, N-{6-[(1-ethyl-3,3-difluoropiperidin-4-yl)methoxy]pyridin-3-yl}-3-methyl-5-{[5-(trifluoromethyl)pyrazin-2-yl]amino}-1,2-thiazole-4-carboxamide]",440 nM
10,"Cc1nsc(Nc2cnc(C(F)(F)F)cn2)c1C(=O)Nc1ccc(F)c(OC[C@@H]2CCCN(CCC(F)(F)F)C2)c1 [Example 395, N-(4-fluoro-3-{[(3R)-1-(3,3,3-trifluoropropyl)piperidin-3-yl]methoxy}phenyl)-3-methyl-5-{[5-(trifluoromethyl)pyrazin-2-yl]amino}-1,2-thiazole-4-carboxamide]",35 nM
11,"CCCCN1CCC(COc2ccc(NC(=O)c3c(C)nsc3Nc3cnc(C(F)(F)F)cn3)cn2)C(F)(F)C1 (centres unmarked) [Example 396, N-{6-[(1-butyl-3,3-difluoropiperidin-4-yl)methoxy]pyridin-3-yl}-3-methyl-5-{[5-(trifluoromethyl)pyrazin-2-yl]amino}-1,2-thiazole-4-carboxamide]",18 nM

# More lines, in order of falling IC50, values ahead:
row,IC50,Compound
1,330 nM,"Cc1nsc(Nc2cnc(C(F)(F)F)cn2)c1C(=O)Nc1ccc(N2CCN(CC(F)F)CC2)cn1 [Example 372, N-{5-[4-(2,2-difluoroethyl)piperazin-1-yl]pyridin-2-yl}-3-methyl-5-{[5-(trifluoromethyl)pyrazin-2-yl]amino}-1,2-thiazole-4-carboxamide]"
2,330 nM,"Cc1nsc(Nc2cnc(C(F)(F)F)cn2)c1C(=O)Nc1ccc(O[C@@H]2CCN(CC(F)(F)F)C2)nc1 [Example 380, 3-methyl-N-(6-{[(3R)-1-(2,2,2-trifluoroethyl)pyrrolidin-3-yl]oxy}pyridin-3-yl)-5-{[5-(trifluoromethyl)pyrazin-2-yl]amino}-1,2-thiazole-4-carboxamide]"
3,300 nM,"Cc1nsc(Nc2cnc(C(F)(F)F)cn2)c1C(=O)Nc1ccc(O[C@@H]2CCCN(CC(F)F)C2)nc1 [Example 385, N-(6-{[(3R)-1-(2,2-difluoroethyl)piperidin-3-yl]oxy}pyridin-3-yl)-3-methyl-5-{[5-(trifluoromethyl)pyrazin-2-yl]amino}-1,2-thiazole-4-carboxamide]"
4,190 nM,"Cc1nsc(Nc2cnc(C(F)(F)F)cn2)c1C(=O)Nc1ccc(N2CCN(CC(F)(F)F)CC2)cn1 [Example 373, 3-methyl-N-{5-[4-(2,2,2-trifluoroethyl)piperazin-1-yl]pyridin-2-yl}-5-{[5-(trifluoromethyl)pyrazin-2-yl]amino}-1,2-thiazole-4-carboxamide]"
5,160 nM,"Cc1nsc(Nc2cnc(C(F)(F)F)cn2)c1C(=O)Nc1ccc(O[C@H]2CCCN(CC(F)(F)F)C2)nc1 [Example 389, 3-methyl-N-(6-{[(3S)-1-(2,2,2-trifluoroethyl)piperidin-3-yl]oxy}pyridin-3-yl)-5-{[5-(trifluoromethyl)pyrazin-2-yl]amino}-1,2-thiazole-4-carboxamide]"
6,140 nM,"Cc1nsc(Nc2cnc(C(F)(F)F)cn2)c1C(=O)Nc1ccc(O[C@@H]2CCN(CCC(F)(F)F)C2)nc1 [Example 381, 3-methyl-5-{[5-(trifluoromethyl)pyrazin-2-yl]amino}-N-(6-{[(3R)-1-(3,3,3-trifluoropropyl)pyrrolidin-3-yl]oxy}pyridin-3-yl)-1,2-thiazole-4-carboxamide]"
7,130 nM,"Cc1nsc(Nc2cnc(C(F)(F)F)cn2)c1C(=O)Nc1ccc(O[C@@H]2CCCN(CCC(F)(F)F)C2)nc1 [Example 387, 3-methyl-5-{[5-(trifluoromethyl)pyrazin-2-yl]amino}-N-(6-{[(3R)-1-(3,3,3-trifluoropropyl)piperidin-3-yl]oxy}pyridin-3-yl)-1,2-thiazole-4-carboxamide]"
8,110 nM,"Cc1nsc(Nc2cnc(C(F)(F)F)cn2)c1C(=O)Nc1ccc(O[C@H]2CCCN(CCC(F)(F)F)C2)nc1 [Example 390, 3-methyl-5-{[5-(trifluoromethyl)pyrazin-2-yl]amino}-N-(6-{[(3S)-1-(3,3,3-trifluoropropyl)piperidin-3-yl]oxy}pyridin-3-yl)-1,2-thiazole-4-carboxamide]"
9,88 nM,"Cc1nsc(Nc2cnc(C(F)(F)F)cn2)c1C(=O)Nc1ccc(OC[C@@H]2CCCN(CCC(F)(F)F)C2)nc1 [Example 377, 3-methyl-5-{[5-(trifluoromethyl)pyrazin-2-yl]amino}-N-(6-{[(3R)-1-(3,3,3-trifluoropropyl)piperidin-3-yl]methoxy}pyridin-3-yl)-1,2-thiazole-4-carboxamide]"
10,82 nM,"Cc1nsc(Nc2cnc(C(F)(F)F)cn2)c1C(=O)Nc1ccc(F)c(OC[C@H]2CCN(CC(F)F)C2)c1 [Example 397, N-(3-{[(3S)-1-(2,2-difluoroethyl)pyrrolidin-3-yl]methoxy}-4-fluorophenyl)-3-methyl-5-{[5-(trifluoromethyl)pyrazin-2-yl]amino}-1,2-thiazole-4-carboxamide]"
11,56 nM,"Cc1nsc(Nc2cnc(C(F)(F)F)cn2)c1C(=O)Nc1ccc(F)c(OC[C@H]2CCN(CC(F)(F)F)C2)c1 [Example 398, N-(4-fluoro-3-{[(3S)-1-(2,2,2-trifluoroethyl)pyrrolidin-3-yl]methoxy}phenyl)-3-methyl-5-{[5-(trifluoromethyl)pyrazin-2-yl]amino}-1,2-thiazole-4-carboxamide]"
12,45 nM,"Cc1nsc(Nc2cnc(C(F)(F)F)cn2)c1C(=O)Nc1ccc(O[C@H]2CCN(CC(F)F)C2)nc1 [Example 382, N-(6-{[(3S)-1-(2,2-difluoroethyl)pyrrolidin-3-yl]oxy}pyridin-3-yl)-3-methyl-5-{[5-(trifluoromethyl)pyrazin-2-yl]amino}-1,2-thiazole-4-carboxamide]"
13,44 nM,"Cc1nsc(Nc2cnc(C(F)(F)F)cn2)c1C(=O)Nc1ccc(OC[C@@H]2CCCN(CC(F)(F)F)C2)nc1 [Example 376, 3-methyl-N-(6-{[(3R)-1-(2,2,2-trifluoroethyl)piperidin-3-yl]methoxy}pyridin-3-yl)-5-{[5-(trifluoromethyl)pyrazin-2-yl]amino}-1,2-thiazole-4-carboxamide]"
